This note sets out measurements from ChEMBL document CHEMBL1139030, “Inhibition of jack bean urease by organobismuth compounds” (Bioorg Med Chem Lett, 2006).

The source made the active and inactive calls. The calls are words filed in the database; no cut-off is given here.

For this test, the target named is Urease (Canavalia ensiformis) (UniProt P07374). The experiment in a line: Inhibitory activity against jack bean urease.
Chain of UniProt P07374 (P07374 whole entry, looked up): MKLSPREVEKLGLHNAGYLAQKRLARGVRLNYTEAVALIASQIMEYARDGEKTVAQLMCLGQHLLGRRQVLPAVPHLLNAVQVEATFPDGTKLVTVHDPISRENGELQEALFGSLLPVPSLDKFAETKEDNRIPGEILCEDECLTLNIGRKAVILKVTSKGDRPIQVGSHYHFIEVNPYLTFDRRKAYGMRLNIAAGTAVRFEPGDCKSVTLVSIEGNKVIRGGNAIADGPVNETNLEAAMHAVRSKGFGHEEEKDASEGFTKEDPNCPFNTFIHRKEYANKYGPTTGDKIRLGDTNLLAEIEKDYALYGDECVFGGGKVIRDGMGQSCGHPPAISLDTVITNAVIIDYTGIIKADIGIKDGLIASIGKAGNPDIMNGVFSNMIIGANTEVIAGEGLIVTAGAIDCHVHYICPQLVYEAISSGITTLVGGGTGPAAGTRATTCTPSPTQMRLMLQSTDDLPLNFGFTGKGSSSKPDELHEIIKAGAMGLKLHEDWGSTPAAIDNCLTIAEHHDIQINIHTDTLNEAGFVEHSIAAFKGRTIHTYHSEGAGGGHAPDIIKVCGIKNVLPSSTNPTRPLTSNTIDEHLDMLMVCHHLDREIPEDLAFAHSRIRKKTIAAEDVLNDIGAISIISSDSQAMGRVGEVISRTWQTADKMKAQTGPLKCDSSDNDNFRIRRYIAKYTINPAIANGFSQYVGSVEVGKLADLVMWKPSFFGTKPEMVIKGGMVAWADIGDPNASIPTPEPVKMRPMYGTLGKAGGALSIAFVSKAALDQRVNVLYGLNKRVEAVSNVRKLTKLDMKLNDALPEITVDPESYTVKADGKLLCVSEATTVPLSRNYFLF
“4-[bis(4-cyanophenyl)bismuthanyl]benzonitrile”: the result was Active. For the substance “4-[bis(4-cyanophenyl)difluorobismuthanyl]benzonitrile”, the outcome was Active. With TRIPHENYLBISMUTHINE the entry was “Active”; with [sequence], “Active”. With “difluorotris(2,4,6-trimethylphenyl)bismuthane” the entry was “Active”. With difluorotris(4-fluorophenyl)bismuthane the entry was “Active”. As to difluorotris(4-methylphenyl)bismuthane, the outcome was Active.

For the substance “difluorotris[4-(trifluoromethyl)phenyl]bismuthane”, the outcome was Active. With “ethyl 4-{bis[4-(ethoxycarbonyl)phenyl]bismuthanyl}benzoate” the entry was “Active”; with “ethyl 4-{bis[4-(ethoxycarbonyl)phenyl]difluorobismuthanyl}benzoate”, “Active”. Turning to trip-tolylbismuthine, the outcome was Active. With “tris(4-(trifluoromethyl)phenyl)bismuthine” the entry was “Active”; with tris(4-fluorophenyl)bismuth dichloride, “Active”; with tris(4-fluorophenyl)bismuthine, “Active”.
